In patent publication US8455499B2, “Alkyne antagonists of lysophosphatidic acid receptors” (Amira Pharmaceuticals, Inc., priority 2008, dated 2013):

Target: T1, human LPA1 (Homo sapiens, UniProt Q92633)
T1 construct: the full-length cDNA for human LPA1 was obtained by PCR of the reverse transcription reaction; expressed in transfected cells
Test: HLPA1 Ca Flux assay (LPA1 calcium flux assay)
Type: cell-based
Settings: CHO cells stably expressing human LPA1; stimulated by 10 nM LPA; intracellular Ca2+
Experimental: A 1.1 kb cDNA encoding the human LPA1 receptor was cloned from human lung. Human lung RNA (Clontech Laboratories, Inc. USA) was reverse transcribed using the RETROscript kit (Ambion, Inc.) and the full-length cDNA for human LPA1 was obtained by PCR of the reverse transcription reaction. The nucleotide sequence of the cloned human LPA1 was determined by sequencing and confirmed to be identical to the published human LPA1 sequence (An et al. Biochem. Biophys. Res. Commun. 231:619 (1997). The cDNA was cloned into the pCDNA5/FRT expression plasmid and transfected in CHO cells using lipofectamine 2000 (Invitrogen Corp., USA). Clones stably expressing human LPA1 were selected using hygromycin and identified as cells that show Ca-influx in response to LPA.
Human LPA1 or LPA3 expressing CHO cells are seeded at 20,000-45,000 cells per well in a 96-well poly-D-lysine coated plate one or two days before the assay. Prior to the assay, the cells are washed once with PBS and then cultured in serum-free media overnight. On the day of the assay, a calcium indicator dye (Calcium 4, Molecular Devices) in assay buffer (HBSS with Ca^2+ and Mg^2+ and containing 20 mM Hepes and 0.3% fatty-acid free human serum albumin) is added to each well and incubation continued for 1 hour at 37° C. 10 μl of test compounds in 2.5% DMSO are added to the cells and incubation continued at room temperature for 30 minutes. Cells are the stimulated by the addition of 10 nM LPA and intracellular Ca^2+ measured using the Flexstation 3 (Molecular Devices). IC50s are determined using Graphpad prism analysis of drug titration curves.

T1 sequence (Q92633 whole entry): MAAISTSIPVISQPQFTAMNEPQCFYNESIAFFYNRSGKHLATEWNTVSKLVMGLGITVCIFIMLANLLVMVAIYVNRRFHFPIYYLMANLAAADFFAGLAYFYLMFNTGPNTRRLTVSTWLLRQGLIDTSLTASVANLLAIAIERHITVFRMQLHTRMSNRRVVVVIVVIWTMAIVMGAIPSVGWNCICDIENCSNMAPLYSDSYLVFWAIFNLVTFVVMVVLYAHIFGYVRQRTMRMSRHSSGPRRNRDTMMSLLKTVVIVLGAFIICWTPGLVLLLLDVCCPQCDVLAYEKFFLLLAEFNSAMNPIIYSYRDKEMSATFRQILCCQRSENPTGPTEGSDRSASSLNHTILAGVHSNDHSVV

`Cc1noc(-c2ccc(C#CCCC(=O)O)cc2)c1NC(=O)OC(C)c1ccccc1Cl` (centres unmarked) [Compound 1-1, 5-(4-{4-[1-(2-Chloro-phenyl)-ethoxycarbonylamino]-3-methyl-isoxazol-5-yl}-phenyl)-pent-4-ynoic acid] and `Cc1noc(-c2ccc(C#CCCCC(=O)O)cc2)c1NC(=O)OC(C)c1ccccc1Cl` (centres unmarked) [Compound 1-2, 6-(4-{4-[1-(2-Chloro-phenyl)-ethoxycarbonylamino]-3-methyl-isoxazol-5-yl}-phenyl)-hex-5-ynoic acid] cannot be ordered by IC50: < 300 nM for the first, < 300 nM for the second.

`Cc1noc(-c2ccc(C#CCCCCC(=O)O)cc2)c1NC(=O)OC(C)c1ccccc1Cl` (centres unmarked) [Compound 1-3, 7-(4-{4-[1-(2-Chloro-phenyl)-ethoxycarbonylamino]-3-methyl-isoxazol-5-yl}-phenyl)-hept-6-ynoic acid] and `Cc1noc(-c2ccc(C#CCC(C)(C)C(=O)O)cc2)c1NC(=O)OC(C)c1ccccc1Cl` (centres unmarked) [Compound 1-4, 5-(4-{4-[1-(2-Chloro-phenyl)-ethoxycarbonylamino]-3-methyl-isoxazol-5-yl}-phenyl)-2,2-dimethyl-pent-4-ynoic acid] cannot be ordered by IC50: < 300 nM for the first, < 300 nM for the second.

First: Cc1noc(-c2ccc(C#CCn3ncc(C(=O)O)c3C(F)(F)F)cc2)c1NC(=O)OC(C)c1ccccc1Cl (centres unmarked) [Compound 2-1, 1-[3-(4-{4-[1-(2-Chloro-phenyl)-ethoxycarbonylamino]-3-methyl-isoxazol-5-yl}-phenyl)-prop-2-ynyl]-5-trifluoromethyl-1H-pyrazole-4-carboxylic acid]
Second: Cc1noc(-c2ccc(C#CCn3cc(C(=O)O)cn3)cc2)c1NC(=O)OC(C)c1ccccc1Cl (centres unmarked) [Compound 2-2, 1-[3-(4-{4-[1-(2-Chloro-phenyl)-ethoxycarbonylamino]-3-methyl-isoxazol-5-yl}-phenyl)-prop-2-ynyl]-1H-pyrazole-4-carboxylic acid]
The IC50 of the first is higher: > 1000 nM for the first, 300 to 1000 nM for the second.

`Cc1noc(-c2ccc(C#CCn3cnc(C(=O)O)c3)cc2)c1NC(=O)OC(C)c1ccccc1Cl` (centres unmarked) [Compound 2-3, 1-[3-(4-{4-[1-(2-Chloro-phenyl)-ethoxycarbonylamino]-3-methyl-isoxazol-5-yl}-phenyl)-prop-2-ynyl]-1H-imidazole-4-carboxylic acid] and `Cc1noc(-c2ccc(C#CCn3cncn3)cc2)c1NC(=O)OC(C)c1ccccc1Cl` (centres unmarked) [Compound 3-1] cannot be ordered by IC50: < 300 nM for the first, < 300 nM for the second.
